Experimental data from ChEMBL document CHEMBL4334494, “Recent advances in the targeting of human DNA ligase I as a potential new strategy for cancer treatment” (Eur J Med Chem, 2019).
Each block holds one compound with its values, some of them ahead of it.

Experiments:
DNA ligase 1 [1] = target: T1, DNA ligase 1 (Homo sapiens, UniProt P18858); experiment: Inhibition of human DNA ligase 1 at 25 uM using nicked DNA as substrate after 30 mins relative to control
DNA ligase 1 [2] = target: T1, DNA ligase 1; experiment: Inhibition of human DNA ligase 1 expressed in Escherichia coli BL21DE3RP cells at 50 uM using 52-mer DNA/25-mer DNA/27-mer DNA as substrate after 30 mins by Cyanin3 dye-based fluorescence assay relative to control
HCT-116 = experiment: Antiproliferative activity against human HCT116 cells at 100 uM relative to control; assay type: functional
DLD-1 = experiment: Antiproliferative activity against human DLD1 cells at 100 uM relative to control; assay type: functional
MDA-MB-231 = experiment: Antiproliferative activity against human MDA-MB-231 cells at 100 uM relative to control; assay type: functional
HepG2 = experiment: Antiproliferative activity against human HepG2 cells at 100 uM relative to control; assay type: functional
HEK293 = experiment: Cytotoxicity against HEK293 cells at 100 uM relative to control; assay type: cell-based; settings: human, hek293, 100 µM
A549 = experiment: Antiproliferative activity against human A549 cells at 100 uM relative to control; assay type: functional

T1 sequence (P18858 whole entry): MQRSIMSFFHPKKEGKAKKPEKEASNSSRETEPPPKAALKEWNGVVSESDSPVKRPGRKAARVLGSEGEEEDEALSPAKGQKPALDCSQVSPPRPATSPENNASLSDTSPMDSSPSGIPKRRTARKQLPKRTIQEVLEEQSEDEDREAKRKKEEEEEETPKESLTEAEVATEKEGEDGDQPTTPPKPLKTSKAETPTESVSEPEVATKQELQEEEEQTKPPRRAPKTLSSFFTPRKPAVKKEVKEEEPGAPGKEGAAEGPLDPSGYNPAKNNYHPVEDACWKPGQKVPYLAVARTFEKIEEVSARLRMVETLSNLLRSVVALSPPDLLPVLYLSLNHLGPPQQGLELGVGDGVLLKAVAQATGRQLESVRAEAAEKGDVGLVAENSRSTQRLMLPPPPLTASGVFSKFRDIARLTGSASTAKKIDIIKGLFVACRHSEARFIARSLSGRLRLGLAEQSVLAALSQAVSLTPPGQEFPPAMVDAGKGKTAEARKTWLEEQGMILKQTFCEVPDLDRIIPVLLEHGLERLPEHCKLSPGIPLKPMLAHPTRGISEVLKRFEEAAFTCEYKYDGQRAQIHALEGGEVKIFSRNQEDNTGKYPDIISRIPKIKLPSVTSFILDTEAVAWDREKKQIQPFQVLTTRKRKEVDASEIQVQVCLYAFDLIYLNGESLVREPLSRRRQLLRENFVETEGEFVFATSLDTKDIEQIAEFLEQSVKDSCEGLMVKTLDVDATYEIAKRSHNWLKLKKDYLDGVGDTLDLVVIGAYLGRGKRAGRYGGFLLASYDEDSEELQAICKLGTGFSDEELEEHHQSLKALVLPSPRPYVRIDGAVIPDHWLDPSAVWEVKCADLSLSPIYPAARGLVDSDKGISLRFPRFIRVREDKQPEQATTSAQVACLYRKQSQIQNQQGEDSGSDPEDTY

inhibition (DNA ligase 1 [2]): > 75%
Compound: COc1ccc(/C=C2\CN(C(=S)NCCc3ccccc3)C/C(=C\c3ccc(OC)cc3)C2=O)cc1

inhibition (DNA ligase 1 [2]): > 75%
Compound: Cc1ccccc1/C=C1\CN(C(=S)Nc2ccccc2)C/C(=C\c2ccccc2C)C1=O

inhibition (DNA ligase 1 [2]): > 75%
Compound: Cc1ccccc1/C=C1\CN(C(=S)NCCc2ccccc2)C/C(=C\c2ccccc2C)C1=O

inhibition (DNA ligase 1 [2]): > 75%
Compound: Cc1ccccc1/C=C1\CN(c2nc(-c3ccccc3)cs2)C/C(=C\c2ccccc2C)C1=O

inhibition (DNA ligase 1 [1]): < 50%
Compound: COc1ccc(/C=C/c2cc(=O)oc3c2ccc2ccccc23)cc1

inhibition (DNA ligase 1 [2]): > 75%
Compound: Cc1ccc(/C=C2\CN(C(=S)Nc3ccccc3)C/C(=C\c3ccc(C)cc3)C2=O)cc1

inhibition (DNA ligase 1 [1]): < 50%
Compound: COc1cccc(/C=C/c2cc(=O)oc3c2ccc2ccccc23)c1

inhibition (DNA ligase 1 [2]): > 75%
Compound: COc1ccc(/C=C2\CN(c3nc(-c4ccccc4)cs3)C/C(=C\c3ccc(OC)cc3)C2=O)cc1

inhibition (DNA ligase 1 [2]): > 75%
Compound: O=C1/C(=C/c2ccccc2F)CN(C(=S)NC(=O)c2ccccc2)C/C1=C\c1ccccc1F

inhibition (DNA ligase 1 [2]): > 75%
Compound: CC(C)c1ccc(/C=C2\CN(c3nc(-c4ccccc4)cs3)C/C(=C\c3ccc(C(C)C)cc3)C2=O)cc1

inhibition (DNA ligase 1 [2]): > 75%
Compound: COc1ccc(/C=C2\CN(C(=S)NCc3ccccc3)C/C(=C\c3ccc(OC)cc3)C2=O)cc1

inhibition (DNA ligase 1 [1]): < 50%
Compound: COc1ccc(/C=C/c2cc(=O)oc3c2ccc2ccccc23)cc1OC

inhibition (DNA ligase 1 [2]): > 75%
Compound: CCCCNC(=S)N1C/C(=C\c2ccc(OC)cc2)C(=O)/C(=C/c2ccc(OC)cc2)C1

inhibition (DNA ligase 1 [2]): > 75%
Compound: O=C1/C(=C/c2ccc(F)cc2)CN(C(=S)NCc2ccccc2)C/C1=C\c1ccc(F)cc1

inhibition (DNA ligase 1 [2]): > 75%
Compound: CC(C)c1ccc(/C=C2\CN(C(=S)NCc3ccccc3)C/C(=C\c3ccc(C(C)C)cc3)C2=O)cc1

inhibition (DNA ligase 1 [1]): < 50%
Compound: COc1ccc(/C=C/c2cc(=O)oc3c2ccc2ccccc23)c(OC)c1

inhibition (DNA ligase 1 [1]): < 50%
Compound: CN(C)c1ccc(/C=C/c2cc(=O)oc3c2ccc2ccccc23)cc1

inhibition (DNA ligase 1 [2]): > 75%
Compound: O=C1/C(=C/c2ccc(F)cc2)CN(c2nc(-c3ccccc3)cs2)C/C1=C\c1ccc(F)cc1

inhibition (DNA ligase 1 [1]): < 50%
Compound: COc1ccc(OC)c(/C=C/c2cc(=O)oc3c2ccc2ccccc23)c1

inhibition (DNA ligase 1 [2]): > 75%
Compound: O=C1/C(=C/c2ccc(F)cc2)CN(C(=S)Nc2ccccc2)C/C1=C\c1ccc(F)cc1

inhibition (DNA ligase 1 [1]): > 90%
Compound: O=c1cc(/C=C/c2ccc([N+](=O)[O-])cc2)c2ccc3ccccc3c2o1

inhibition (DNA ligase 1 [1]): < 50%
Compound: COc1ccc(/C=C/c2cc(=O)oc3c2ccc2c(OC)cccc23)cc1

inhibition (DNA ligase 1 [2]): > 75%
Compound: O=C1/C(=C/c2ccccc2F)CN(c2nc(-c3ccccc3)cs2)C/C1=C\c1ccccc1F

inhibition (DNA ligase 1 [2]): > 75%
Compound: Cc1ccc(/C=C2\CN(C(=S)NCc3ccccc3)C/C(=C\c3ccc(C)cc3)C2=O)cc1

inhibition (DNA ligase 1 [1]): < 50%
Compound: N#Cc1ccc(/C=C/c2cc(=O)oc3c2ccc2ccccc23)cc1

More lines, now with the values behind:

Compound: COc1cccc2c1ccc1c(/C=C/c3ccc(C#N)cc3)cc(=O)oc12
inhibition (DNA ligase 1 [1]): > 90%

Compound: COc1cc(/C=C/c2cc(=O)oc3c2ccc2c(OC)cccc23)cc(OC)c1OC
inhibition (DNA ligase 1 [1]): < 50%

Compound: COc1ccccc1/C=C/c1cc(=O)oc2c1ccc1c(C)cccc12
inhibition (DNA ligase 1 [1]): < 50%

Compound: CCOC(=O)C1=C(C)NC(=O)NC1c1cc(/C=N/NC(N)=O)c(O)c(C(C)(C)C)c1 (stereo not drawn)
inhibition at 100 µM (HCT-116): < 80%
inhibition at 100 µM (DLD-1): < 80%
inhibition at 100 µM (MDA-MB-231): < 80%
inhibition at 100 µM (HepG2): < 80%
Activity (HEK293): < 80%
inhibition at 100 µM (A549): < 80%

Compound: CCOC(=O)C1=C(C)NC(=O)NC1c1cc(/C=N/NC(=O)Nc2ccc(F)cc2)c(O)c(C(C)(C)C)c1 (stereo not drawn)
inhibition at 100 µM (HCT-116): > 80%
inhibition at 100 µM (DLD-1): > 80%
inhibition at 100 µM (MDA-MB-231): > 80%
inhibition at 100 µM (HepG2): > 80%
Activity (HEK293): > 80%
inhibition at 100 µM (A549): > 80%

Compound: COc1cc(/C=C/c2cc(=O)oc3c2ccc2c(C)cccc23)cc(OC)c1
inhibition (DNA ligase 1 [1]): > 50%

Compound: COc1ccc(/C=C/c2cc(=O)oc3c2ccc2c(C)cccc23)c(OC)c1
inhibition (DNA ligase 1 [1]): > 90%

Compound: CCOC(=O)C1=C(C)NC(=O)NC1c1cc(/C=N/NC(=S)Nc2ccc(Cl)cc2)c(O)c(C(C)(C)C)c1 (stereo not drawn)
inhibition at 100 µM (HCT-116): > 80%
inhibition at 100 µM (DLD-1): > 80%
inhibition at 100 µM (MDA-MB-231): > 80%
inhibition at 100 µM (HepG2): > 80%
Activity (HEK293): > 80%
inhibition at 100 µM (A549): > 80%

Compound: COc1cccc2c1ccc1c(/C=C/c3ccc([N+](=O)[O-])cc3)cc(=O)oc12
inhibition (DNA ligase 1 [1]): > 90%

Compound: CCOC(=O)C1=C(C)NC(=S)NC1c1cc(/C=N/NC(=S)Nc2ccccc2)c(O)c(C(C)(C)C)c1 (stereo not drawn)
inhibition at 100 µM (HCT-116): < 80%
inhibition at 100 µM (DLD-1): < 80%
inhibition at 100 µM (MDA-MB-231): < 80%
inhibition at 100 µM (HepG2): < 80%
Activity (HEK293): < 80%
inhibition at 100 µM (A549): < 80%

Compound: CCOC(=O)C1=C(C)NC(=O)NC1c1cc(C)c(O)c(/C=N/NC(N)=S)c1 (stereo not drawn)
inhibition at 100 µM (HCT-116): > 80%
inhibition at 100 µM (DLD-1): > 80%
inhibition at 100 µM (MDA-MB-231): > 80%
inhibition at 100 µM (HepG2): > 80%
Activity (HEK293): > 80%
inhibition at 100 µM (A549): > 80%

Compound: COc1ccc(/C=C/c2cc(=O)oc3c2ccc2c(C)cccc23)cc1OC
inhibition (DNA ligase 1 [1]): < 50%

Compound: CCOC(=O)C1=C(C)NC(=O)NC1c1cc(/C=N/NC(=O)Nc2cccc(OC)c2)c(O)c(C(C)(C)C)c1 (stereo not drawn)
inhibition at 100 µM (HCT-116): > 80%
inhibition at 100 µM (DLD-1): > 80%
inhibition at 100 µM (MDA-MB-231): > 80%
inhibition at 100 µM (HepG2): > 80%
Activity (HEK293): > 80%
inhibition at 100 µM (A549): > 80%

Compound: CCOC(=O)C1=C(C)NC(=S)NC1c1cc(/C=N/NC(=S)Nc2ccc(Cl)cc2)c(O)c(C(C)(C)C)c1 (stereo not drawn)
inhibition at 100 µM (HCT-116): < 80%
inhibition at 100 µM (DLD-1): < 80%
inhibition at 100 µM (MDA-MB-231): < 80%
inhibition at 100 µM (HepG2): < 80%
Activity (HEK293): < 80%
inhibition at 100 µM (A549): < 80%

Compound: COc1ccc(OC)c(/C=C/c2cc(=O)oc3c2ccc2c(OC)cccc23)c1
inhibition (DNA ligase 1 [1]): < 50%

Compound: CCOC(=O)C1=C(C)NC(=O)NC1c1cc(/C=N/NC(=S)Nc2ccccc2)c(O)c(C(C)(C)C)c1 (stereo not drawn)
inhibition at 100 µM (HCT-116): > 80%
inhibition at 100 µM (DLD-1): > 80%
inhibition at 100 µM (MDA-MB-231): > 80%
inhibition at 100 µM (HepG2): > 80%
Activity (HEK293): > 80%
inhibition at 100 µM (A549): > 80%

Compound: COc1cccc2c1ccc1c(/C=C/c3ccccc3)cc(=O)oc12
inhibition (DNA ligase 1 [1]): > 50%

Compound: COc1cccc(OC)c1/C=C/c1cc(=O)oc2c1ccc1c(OC)cccc12
inhibition (DNA ligase 1 [1]): < 50%

Compound: CCOC(=O)C1=C(C)NC(=S)NC1c1cc(/C=N/NC(=S)Nc2ccc(C)cc2)c(O)c(C(C)(C)C)c1 (stereo not drawn)
inhibition at 100 µM (HCT-116): < 80%
inhibition at 100 µM (DLD-1): < 80%
inhibition at 100 µM (MDA-MB-231): < 80%
inhibition at 100 µM (HepG2): < 80%
Activity (HEK293): < 80%
inhibition at 100 µM (A549): < 80%

Compound: COc1cc(/C=C/c2cc(=O)oc3c2ccc2ccccc23)cc(OC)c1OC
inhibition (DNA ligase 1 [1]): < 50%

Compound: CCOC(=O)C1=C(C)NC(=O)NC1c1cc(/C=N/NC(=O)Nc2ccc(Br)cc2)c(O)c(C(C)(C)C)c1 (stereo not drawn)
inhibition at 100 µM (HCT-116): > 80%
inhibition at 100 µM (DLD-1): > 80%
inhibition at 100 µM (MDA-MB-231): > 80%
inhibition at 100 µM (HepG2): > 80%
Activity (HEK293): > 80%
inhibition at 100 µM (A549): > 80%

Compound: Cc1cccc2c1ccc1c(/C=C/c3ccc([N+](=O)[O-])cc3)cc(=O)oc12
inhibition (DNA ligase 1 [1]): > 90%

Compound: COc1ccc(/C=C/c2cc(=O)oc3c2ccc2c(OC)cccc23)c(OC)c1
inhibition (DNA ligase 1 [1]): < 50%

Compound: Cc1cccc2c1ccc1c(/C=C/c3ccccc3)cc(=O)oc12
inhibition (DNA ligase 1 [1]): < 50%

Compound: COc1cc(/C=C/c2cc(=O)oc3c2ccc2c(C)cccc23)c(OC)c(OC)c1OC
inhibition (DNA ligase 1 [1]): < 50%

Compound: COc1ccc(/C=C/c2cc(=O)oc3c2ccc2c(OC)cccc23)cc1OC
inhibition (DNA ligase 1 [1]): > 50%

Compound: COc1ccc(OC)c(/C=C/c2cc(=O)oc3c2ccc2c(C)cccc23)c1
inhibition (DNA ligase 1 [1]): < 50%

Compound: O=c1cc(/C=C/c2ccccc2)c2ccc3ccccc3c2o1
inhibition (DNA ligase 1 [1]): < 50%
